The values that follow are results of earlier work, collected in patent publication US20210346506A1, “PRODRUG OF ITRACONAZOLE AND USES THEREOF” (priority 2020, published 2021).

The conditions of the data set: relatively low dose; cited from earlier work.

Regarding `CCC(C)n1ncn(-c2ccc(N3CCN(c4ccc(OCC5COC(Cn6cncn6)(c6ccc(Cl)cc6Cl)O5)cc4)CC3)cc2)c1=O` (stereo not shown) [Itraconazole], the “adverse effect, in words” value is given as “no observed adverse effect”.
